{"source": "patent US20220412989A1", "about": "“COMPOSITIONS AND METHODS FOR DETECTING CELLS UNDERGOING FERROPTOSIS USING AN ANTIBODY” (THE TRUSTEES OF COLUMBIA UNIVERSITY IN THE CITY OF NEW YORK, priority 2020, published 2022)", "type_in_all_cases": "cell-based, human", "key": {"HT-1080 cells [1]": {"test_system": "HT-1080 cells", "assay": "Nucleus area by immunofluorescence (DAPI, CellProfiler)", "description": "HT-1080 (ATCC Cat #CRL-7951, RRID:CVCL_0317), A-673, SK-BR-3, SK-LMS-1 and Huh-7 cells were treated with 1 μM RSL3 for 4 h, 15 μM erastin for 8 h, 10 μM IKE for 8 h, 15 μM FINO2 for 8 h, 10 μM FIN56 for 8 h, 100 μM tBuOOH for 8 h, 1 μM staurosporine (STS) for 6 h, 2 μM camptothecin (CPT) for 24 h, 1 μM RSL3+5 μM Fer-1 for 4 h and 10 μM IKE+5 μM Fer-1 for 8 h on poly-lysine-coated cover slips (Sigma Aldrich P4832) in 24-well plate. Media were taken out and the cells were gently washed with PBS^++ (PBS with 1 mM CaCl2) and 0.5 mM MgCl2) twice. The cells were fixed and permeabilized by adding 200 μL/well of 4% paraformaldehyde (PFA) in PBS with 0.1% Triton X-100 (PBT), and incubated at room temperature for 18 min. The cells were then washed with PBT three times. Then the cells were blocked with 5% goat serum (ThermoFisher 50197Z) in PBT for 1 h at room temperature. The cells were incubated with purified mouse monoclonal antibodies (1:5 dilution), mouse mAb 3F3 FMA (1:500 dilution), Transferrin Receptor/CD71 Monoclonal Antibody, Clone: H68.4, Invitrogen (Thermo Fisher Scientific Cat #13-6800, RRID:AB_2533029, 1:250 dilution), Cd71 (D7G9X) XP® Rabbit mAb (Cell Signaling Technology Cat #13113, RRID:AB_2715594, 1:100 dilution), CD71 (3B8 2A1) (Santa Cruz Biotechnology Cat #sc-32272, RRID:AB_627167, 1:50 dilution), Tom20 (FL-145) (Santa Cruz Biotechnology Cat #sc-11415, RRID:AB_2207533, 1:250 dilution), PDI antibody [RL90]—ER Marker (Abcam Cat #ab2792, RRID:AB_303304, 1:100 dilution), Gm130 (D6B1) XP® Rabbit mAb (Cell Signaling Technology Cat #12480, RRID:AB_2797933, 1:3200 dilution), Anti-Malondialdehyde antibody (Abcam Cat #ab6463, RRID:AB_305484, 1:400 dilution), Anti-4 Hydroxynonenal antibody (Abcam Cat #ab46544, RRID:AB_722493, 1:50 dilution), ACSL4 Antibody (F-4) (Santa Cruz Biotechnology Cat #sc-365230, RRID:AB_10843105, 1:50 dilution), mouse mAb 1F83 (1:100 dilution), which specifically recognizes the malondialdehyde (MDA)-lysine adduct 4-methyl-1,4-dihydropyridine-3,5-dicarbaldehyde (MDHDC) (Yamada et al., 2001), in PBT with 1% BSA and 5% goat serum overnight at 4° C. The cells were washed with PBT for 5 min three times. The cells were incubated with Goat anti-Mouse IgG (H+L) Highly Cross-Adsorbed Secondary Antibody, Alexa Fluor 594 (Thermo Fisher Scientific Cat #A-11032, RRID:AB_2534091, 1:200 dilution) or Goat anti-Rabbit IgG (H+L) Highly Cross-Adsorbed Secondary Antibody, Alexa Fluor 488 (Thermo Fisher Scientific Cat #A-11034, RRID:AB_2576217, 1:200 dilution) at room temperature for 1 h. The cells were washed with PBT for 5 min three times. ProLong Diamond antifade mountant with DAPI (ThermoFisher P36962) was added to stain the nucleus. All images were captured on a Zeiss LSM 800 confocal microscope at Plan-Apochromat 63x/1.40 Oil DIC objective with constant laser intensity for all samples. When applicable, line-scan analysis was performed on representative confocal microscopy images using Zeiss LSM software to qualitatively visualize fluorescence overlap.\nThe quantification of the intensity of antibodies was analyzed using CellProfiler 3.1.8 (Carpenter et al., 2006) (CellProfiler Image Analysis Software, RRID:SCR_007358). Nuclei were firstly identified as primary objects using global minimum cross entropy strategy. […] Then mean intensities and size areas of nuclei, cytoplasm and plasma membranes were then measured and reported. […]"}, "HT-1080 cells [2]": {"test_system": "HT-1080 cells", "assay": "Cell death after RSL3 incubation", "details": "1 μM RSL3, 4 h incubation"}, "HT-1080 cells [3]": {"test_system": "HT-1080 cells", "assay": "Nucleus area by high-content analysis", "description": "For the screening with five technical replicates, HT-1080 cells were washed with PBS, trypsinized and resuspended in cell culture medium. The cell suspension (2,000 cells in 50 μl per well) was dispensed into collagen (Sigma-Aldrich, St. Louis, Mass., USA) pre-coated 384-well plates (PerkinElmer 384-well CellCarrierUltra™). 24 h after seeding, medium was exchanged to medium containing 0.3 μM RSL3 (1 mM stock solution) dissolved in 100% dimethyl sulfoxide (DMSO) or DMSO alone. 50 μl medium with 0.3 μM RSL3/DMSO was added per well. The cells were then incubated (37° C.; 5% CO2) for 2.5 h prior to fixation and antibody staining. […] Finally, plates were recorded using the automated Operetta® microscope with the 20× high NA objective for high-resolution images (PerkinElmer, USA). For quantification, three images of each condition were recorded using three channels (Hoechst, Alexa488, TRITC). […] Quantification on cell number, cytoplasmic intensity, nucleus intensity and spot number per cell was performed using the Columbus Software (PerkinElmer, USA).\nMultiparametric image analysis was performed using Columbus Software 2.8.0 (PerkinElmer). […] In a next step we have calculated the morphology and Alexa488 fluorescence intensity in each cell region (nucleus and cytoplasm). […] Each spot was detected as a small region within the corresponding image by having a higher intensity than its surrounding area. […]"}}}
{"compound": "O=S(=O)(NC1CCCCC1)c1ccc2c(c1)C(=NO)c1cc(S(=O)(=O)NC3CCCCC3)ccc1-2", "note": "[FIN56, ferroptosis inducer 56]", "values": [{"measurement": "nuclei shrank by (mean nucleus area)", "setting": "HT-1080 cells [1]; 10 μM FIN56, 8 h incubation", "result": 17, "unit": "%"}]}
{"compound": "CC1(CCO)CC2(CCC(C(C)(C)C)CC2)OO1", "note": "(centres unmarked) [FINO2, ferroptosis inducer endoperoxide]", "values": [{"measurement": "nuclei shrank by (mean nucleus area)", "setting": "HT-1080 cells [1]; 15 μM FINO2, 8 h incubation", "result": 49, "unit": "%"}]}
{"compound": "CC(C)Oc1ccc(C(=O)Cn2ccnc2)cc1-n1c(CN2CCN(C(=O)COc3ccc(Cl)cc3)CC2)nc2ccccc2c1=O", "note": "[IKE, imidazole ketone erastin]", "values": [{"measurement": "nuclei shrank by (mean nucleus area)", "setting": "HT-1080 cells [1]; 10 μM IKE, 8 h incubation", "result": 12, "unit": "%"}]}
{"compound": "COC(=O)c1ccc([C@@H]2c3[nH]c4ccccc4c3C[C@@H](C(=O)OC)N2C(=O)CCl)cc1", "note": "[RSL3, (1S, 3R)-RSL3]", "values": [{"measurement": "HT-1080 cells died", "setting": "HT-1080 cells [2]", "result": 30, "unit": "%"}, {"measurement": "nuclei shrank by (mean nucleus area)", "setting": "HT-1080 cells [1]; 1 μM RSL3, 4 h incubation", "result": 27, "unit": "%"}, {"measurement": "decrease of average nucleus area vs DMSO group", "setting": "HT-1080 cells [3]; RSL3-treated plates 4-6", "result": 17, "unit": "%"}, {"measurement": "average nucleus area", "setting": "HT-1080 cells [3]; RSL3-treated plates 4-6 (DMSO group 240 μm^2)", "result": 200, "unit": "μm^2"}]}
{"compound": "CCOc1ccccc1-n1c(C(C)N2CCN(C(=O)COc3ccc(Cl)cc3)CC2)nc2ccccc2c1=O", "note": "(centres unmarked) [erastin]", "values": [{"measurement": "nuclei shrank by (mean nucleus area)", "setting": "HT-1080 cells [1]; 15 μM erastin, 8 h incubation", "result": 21, "unit": "%"}]}
